The subject of one experiment is clec-60::GFP. Put plainly: Immune GFP reporter induction, transgene agIs26. It is filed as in vivo, Caenorhabditis elegans. As to conditions: compound-exposed versus DMSO-exposed animals, visual. An excerpt:
Caenorhabditis elegans strains were maintained on Escherichia coli OP50 as described in Brenner, Genetics, 1974, 77:71-94. Wildtype N2 nematodes carrying integrated transgenes acIs219 (AU78), acIs101(AY101), agIs17(AU133), or agIs26 (AU185) (see (1) Shivers, et al., PLoS. Genet. 2010, 6: e1000892, (2) Bolz et al., J. Biol. Chem. 2010, 285:10832-40, (3) Estes et al., Proc. Natl. Acad. Sci., 2010, 107:2153-8, and (4) Irazoqui et al., Proc. Natl. Acad. Sci., 2008, 105:17469-74) were used to assay the immunomodulatory activity of candidate compounds. […] Fold change was calculated using the Pfaffl method (see Pfaffl et al., Nucleic Acids Res., 2001, 29:e45).
Without wishing to be bound by theory, it was hypothesized that a subset of these compounds cured nematode infection by directly activating the innate immune response of the animal. […] First, the inventors studied four C. elegans strains in which the promoter of the nematode immune response genes T24B8.5, F35E12.5, irg-1 and clec-60 were individually fused to GFP, generating transgenes acIs219 (AU78), acIs101(AY101), agIs17(AU133), or agIs26 (AU185), respectively, thereby allowing a visual readout of gene activity in each strain. […]

Experiment [1] has as its system C. elegans infected with E. faecalis. Put plainly: Automated infection assay for primary compound screening (SYTOX staining, CELLPROFILER). Type of experiment: in vivo, Caenorhabditis elegans. How it is done:
In general, the area of each well that is SYTOX-positive in the fluorescence image is measured and normalized by the total area occupied by all worms, which is quantified in the bright field image. This typically requires illumination correction to flatten lighting abnormalities, adaptive thresholding, and size- and contrast-based filters and masks to exclude debris and other artifacts. By calculating the ratio of the fluorescent area (which corresponds to the area occupied by dead worms) to the total area occupied by all worms, one can accurately determine the number of dead worms in each well. […] In a well where the worms are rescued by ampicillin treatment, 3 of the 14 worms were dead based on manual scoring. The ratio of the fluorescent area to the area occupied by all worms obtained by the CELLPROFILER analysis is correspondingly low at 0.12.
glp-4(bn2); sek-1 (km4) mutant worms were grown to gravid adult stage. 1,000 worms at the L1 stage were grown for 5.2 days at 15° C. on 9-cm plates of SK agar media spread with a lawn of E. coli strain HB101. Embryos from the gravid adults were isolated by a previously described hypochlorite method (see Tan et al., (1999) Proc. Natl. Acad. Sci. USA 96, 715-720) and hatched at 15° C. for 2 days. Approximately 4,500 of the Ll hatchlings were grown on each 9-cm plate of SK-NS agar (SK media with 62.5 U/ml nystatin and 100 μg/ml streptomycin) and with lawns of E. coli HB101. These worms were grown at 25° C. for 52 hours to generate sterile, young adults.
A culture of E. faecalis MMH594 was grown in BHI broth (BD Difco) with 80 μg/ml kanamycin at 37° C. for 6 hours and 100 μl of the culture were spread onto each 9-cm plate of BHI agar containing 80 μg/mlkanamycin. Lawns of E. faecalis were grown at 25° C. for 16 hours and transferred to 15° C. for 8 hours.
Sterile adult worms were resuspended in M9 buffer and washed twice with M9 in a 1:10 ratio to remove E. coli. 8,000 worms were pipetted onto each lawn of E. faecalis and incubated 15 hours at 15° C. After infection, the worms were resuspended in M9 and used as described below. 384-well plates (Corning #3712) were filled with 55 μl media (see below) using a Thermo Scientific MULTIDROP Combi reagent dispenser. 0.3 μl of a candidate compound in DSMO were pin transferred into each well using a CyBio CYBI-Well vario transfer system. The plates were agitated using an Eppendorf MIXMATE at 1,800 rpm for 15 seconds. Using the Union Biometrica Complex Object Parametric Analyzer and Sorter (COPAS) BIOSORT worm sorter according to manufacturer's protocols, 15 of the infected worms were transferred to each well in a total volume of approximately 15 μl. Total volume per well is 70 μl/well with a final composition of the media being 20% BHI, […], 80 μg/ml kanamycin, 62.5 U/ml nystatin, 1% DMSO, and 19% sheath solution (Union Biometrica Part #300-5101-000). Plates were vortexed for 5 seconds, centrifuged at 1000×g for 10 seconds, and sealed with gas permeable membranes (BREATHEASY Diversified). Plates were placed in a single layer on the top shelves in a 26.3° C. incubator at 85% relative humidity (RH) and incubated without agitation for 5 days.
After 5 days, the bacteria and liquid media in the assay plates were removed as described below. First, the bacteria were re-suspended by shaking on the MIXMATE for 15 seconds at 1,800 rpm, the sealing membrane was removed, and the worms were allowed to settle to the bottom of the wells for 3 minutes. […]

For the compound `NNc1ccc2c(Cl)cc(Cl)c(O)c2n1` [Compound 11], in the experiment with clec-60::GFP, the “immune reporter induction clec-60::GFP” value is recorded as “+”.
Regarding `Cc1ccc(Nc2nc(N)c3ccccc3n2)cc1Cl` [Compound 26], in experiment [1] (primary screen), the “curing activity in the primary screen” value is recorded as “cured infected C. elegans”. Besides, in experiment [1] (secondary experiment), the “retest in secondary screen” value is “did not re-test”.
